Experiments:
[1] = tested on: small flower umbrella sedge; assay: Test B flooded paddy test; format: in vivo, Cyperus difformis; settings: 1000 g ai/ha, scale 0 to 100 (0 no effect, 100 complete control)
How it was run: (§1)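 Formulated test chemicals went onto postemergence plants measuring 2 to 18 cm, at one to four leaves. For the paddy assay, species had reached two leaves. Scoring took place 13–15 days later by eye, relative to untreated plants, using 0 for no effect up to 100 for full control.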

barnyardgrass [2] = assay: Test B flooded paddy test; format: in vivo, Echinochloa crus-galli; settings: 1000 g ai/ha, scale 0 to 100 (0 no effect, 100 complete control)
How it was run: as §1

cocklebur = assay: Test B pre-/postemergence herbicide test; format: in vivo, Xanthium strumarium; settings: for Cocklebur plant response rating: postemergence, scale 0 (no effect) to 100 (complete control)
How it was run: (§2)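 Plants compared with untreated controls 13–15 days post-treatment and given a visual 0–100 injury score. Applications: preemergence to seeds; postemergence at 1- to 4-leaf (2–18 cm); paddy species flooded, 2-leaf stage. Vehicle non-phytotoxic, surfactant included.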

lambsquarters = assay: Test B pre-/postemergence herbicide test; format: in vivo, Chenopodium album; settings: for Lambsquarters plant response rating: postemergence
How it was run: (§3)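 Test chemicals in a non-phytotoxic solvent mixture with surfactant were applied preemergence to seeded species and postemergence to plants 2-18 cm tall (1- to 4-leaf stage); rice and barnyardgrass were also tested in a flooded paddy at the 2-leaf stage. Visual rating versus controls after 13-15 days in greenhouse, scale 0 (no effect) to 100 (complete control).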

ducksalad [3] = assay: Test C flooded paddy test; format: in vivo, Heteranthera limosa
large crabgrass = assay: Test B pre-/postemergence herbicide test; format: in vivo, Digitaria sanguinalis; settings: for Crabgrass, Large plant response rating: postemergence
How it was run: as §3

[4] = tested on: smallflower umbrella sedge; assay: Test C flooded paddy test; format: in vivo, Cyperus difformis
wheat = assay: Test B postemergence herbicide test; format: in vivo, Triticum aestivum; set-up: key to Wheat plant response rating: 0 = no effect, 100 = complete control; settings: postemergence
How it was run: as §1

rice [5] = assay: Test B pre-/postemergence herbicide test; format: in vivo, Oryza sativa; settings: 0 = no effect, 100 = complete control, preemergence
How it was run: as §3

velvetleaf = assay: Test B pre-/postemergence herbicide test; format: in vivo, Abutilon theophrasti; settings: for Velvetleaf plant response rating: postemergence
How it was run: as §3

pigweed = assay: Test B pre-/postemergence herbicide test; format: in vivo, Amaranthus retroflexus; settings: for Pigweed plant response rating: postemergence
How it was run: as §3

barnyardgrass [6] = assay: Test C flooded paddy test; format: in vivo, Echinochloa crus-galli
How it was run: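 Greenhouse test with a 12–14 day hold after application and visual comparison with controls. Emerged plants were 1- to 4-leaf stage (2–18 cm) when sprayed postemergence, and the paddy barnyardgrass was at 2 leaves under flooded conditions. 100 = complete control.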

giant foxtail = assay: Test B pre-/postemergence herbicide test; format: in vivo, Setaria faberi; settings: for Foxtail, Giant plant response rating: postemergence
How it was run: as §3

rice [7] = assay: Test B flooded paddy test; format: in vivo, Oryza sativa; settings: 1000 g ai/ha, scale 0 to 100 (0 no effect, 100 complete control)
How it was run: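 Paddy species grown to the 2-leaf stage under flooding; blackgrass sprayed postemergence at 2–18 cm (1- to 4-leaf stage). Plants kept in a greenhouse for 13 to 15 days, then visually rated against controls on 0 (no effect) to 100 (complete control).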

Surinam grass = assay: Test B pre-/postemergence herbicide test; format: in vivo, Urochloa decumbens; settings: for Surinam Grass plant response rating: postemergence
How it was run: as §3

ducksalad [8] = assay: Test B flooded paddy test; format: in vivo, Heteranthera limosa; settings: 1000 g ai/ha, scale 0 to 100 (0 no effect, 100 complete control)
How it was run: as §1

morningglory = assay: Test B pre-/postemergence herbicide test; format: in vivo, Ipomoea coccinea; settings: for Morningglory plant response rating: postemergence
How it was run: as §2

wild oat = assay: Test B postemergence herbicide test; format: in vivo, Avena fatua; settings: postemergence
How it was run: as §1

corn = assay: Test B pre-/postemergence herbicide test; format: in vivo, Zea mays; settings: for Corn plant response rating: postemergence
How it was run: as §3

blackgrass = assay: Test B postemergence herbicide test; format: in vivo, Alopecurus myosuroides; settings: postemergence, visual rating, scale 0 (no effect) to 100 (complete control)
How it was run: as §1

rice [9] = assay: Test C flooded paddy test; format: in vivo, Oryza sativa
How it was run: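 Injury scored visually against controls on a 0 (no effect) to 100 (complete control) scale, 12 to 14 days after treatment in greenhouse. Flooded paddy plants treated at 2-leaf stage; postemergence plants at 1- to 4-leaf stage, 2 to 18 cm tall.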

barnyardgrass [10] = assay: Test B pre-/postemergence herbicide test; format: in vivo, Echinochloa crus-galli; settings: for Barnyardgrass plant response rating: postemergence, scale 0 (no effect) to 100 (complete control)
How it was run: as §2

[11] = 125 g ai/ha, 0 = no effect, 100 = complete control, preemergence
[12] = 500 g ai/ha, visual rating, 0 = no effect, 100 = complete control, preemergence
[13] = 125 g ai/ha, visual rating, scale 0 (no effect) to 100 (complete control)
[14] = 500 g ai/ha, scale 0 to 100, 0 is no effect, 100 is complete control
[15] = 125 g ai/ha, scale 0 to 100 (0 no effect, 100 complete control)
[16] = 250 g ai/ha, scale of 0 to 100, 0 is no effect, 100 is complete control
[17] = 500 g ai/ha, visual rating after 12 to 14 days, scale 0 to 100 (0 no effect, 100 complete control)

CCn1nc(C(C)(C)C)cc1C(=O)Nc1ccnc(C(=O)N(C)C)c1 [Compound 256]
90: Ducksalad plant response rating (ducksalad [8])
0: Cocklebur plant response rating (0 to 100 scale) (cocklebur; [11]) | Plant response rating, Cocklebur (cocklebur; [12]) | Cocklebur plant response rating (cocklebur; 125 g ai/ha, visual rating) | Cocklebur plant response rating (cocklebur; 500 g ai/ha, visual rating) | Ducksalad plant response rating (ducksalad [3]; 62 g ai/ha, scale 0 to 100) | Ducksalad plant response rating (ducksalad [3]; [15]) | Crabgrass, Large plant response rating (large crabgrass; [13]) | Sedge, Umbrella plant response rating ([4]; 62 g ai/ha, scale 0 to 100) | Sedge, Umbrella plant response rating [4, 15] | Velvetleaf plant response rating (0 to 100 scale) (velvetleaf; [11]) | Barnyardgrass plant response rating (barnyardgrass [6]; 62 g ai/ha, scale 0 to 100 (0 no effect, 100 complete control)) | Barnyardgrass plant response rating (barnyardgrass [6]; [15]) | Barnyardgrass plant response rating (barnyardgrass [6]; [16]) | Plant response rating, Barnyardgrass (barnyardgrass [6]; [17]) | Foxtail, Giant plant response rating (0 to 100 scale) (giant foxtail; [11]) | Foxtail, Giant plant response rating (giant foxtail; [13]) | Surinam Grass plant response rating (Surinam grass; [13]) | Morningglory plant response rating (0 to 100 scale) (morningglory; [11]) | Plant response rating, Morningglory (morningglory; [12]) | Morningglory plant response rating (morningglory; [13]) | Corn plant response rating (0 to 100 scale) (corn; [11]) | Plant response rating, Corn (corn; [12]) | Corn plant response rating (corn; [13]) | Blackgrass plant response rating (blackgrass; 125 g ai/ha) | Rice plant response rating (rice [9]; 62 g ai/ha, scale 0 to 100) | Rice plant response rating (rice [9]; [15]) | Rice plant response rating (rice [9]; [16]) | Barnyardgrass plant response rating (0 to 100 scale) (barnyardgrass [10]; [11]) | Barnyardgrass plant response rating (barnyardgrass [10]; 125 g ai/ha, visual rating)
10: Crabgrass, Large plant response rating (0 to 100 scale) (large crabgrass; [11]) | Wheat plant response rating (wheat; [13]) | Velvetleaf plant response rating (velvetleaf; [13]) | Morningglory plant response rating (morningglory; [14]) | Oat, Wild plant response rating (wild oat; [13]) | Corn plant response rating (corn; [14])
100: Plant response rating, Lambsquarters (lambsquarters; [12]) | Plant response rating, Crabgrass, Large (large crabgrass; [12]) | Plant response rating, Pigweed (pigweed; [12])
30: Barnyardgrass plant response rating (barnyardgrass [2]) | Lambsquarters plant response rating (lambsquarters; [13]) | Wheat plant response rating (wheat; [14]) | Rice plant response rating (0 to 100 scale) (rice [5]; 125 g ai/ha) | Velvetleaf plant response rating (velvetleaf; [14]) | Pigweed plant response rating (pigweed; [13]) | Oat, Wild plant response rating (wild oat; [14])
60: Lambsquarters plant response rating (lambsquarters; [14]) | Sedge, Umbrella plant response rating [4, 16] | Plant response rating, Sedge, Umbrella [4, 17] | Pigweed plant response rating (pigweed; [14]) | Plant response rating, Foxtail, Giant (giant foxtail; [12]) | Surinam Grass plant response rating (0 to 100 scale) (Surinam grass; [11]) | Plant response rating, Surinam Grass (Surinam grass; [12]) | Barnyardgrass plant response rating (barnyardgrass [10]; 500 g ai/ha, visual rating)
70: Sedge, Umbrella plant response rating [1] | Plant response rating, Barnyardgrass (barnyardgrass [10]; [12])
20: Crabgrass, Large plant response rating (large crabgrass; [14]) | Surinam Grass plant response rating (Surinam grass; [14]) | Blackgrass plant response rating (blackgrass; 500 g ai/ha)
50: Foxtail, Giant plant response rating (giant foxtail; [14]) | Rice plant response rating (rice [7])
15: Ducksalad plant response rating (ducksalad [3]; [16]) | Plant response rating, Rice (rice [9]; [17])
80: Plant response rating, Rice (rice [5]; 500 g ai/ha, visual rating) | Plant response rating, Velvetleaf (velvetleaf; [12])
65: Plant response rating, Ducksalad (ducksalad [3]; [17])
